20 compounds from article PMC5515982, “Hair analysis for the biomonitoring of pesticide exposure: comparison with blood and urine in a rat model” (Archives of Toxicology, 2016) can be followed below.

What all share (assay type): in vivo, rat
A short description of series [1]: Concentration of pesticides and metabolites in 24-h urine of rats after 90-day gavage exposure to a pesticide mixture. To be noted: for Slope (linear fit), concentration in urine versus level of exposure: exposure expressed as mg/kg per day, concentration as ng/mL, detected values only; for Concentration range in urine (detection): ND = not detected, whatever the level of exposure. The procedure: (§1) Eight rats were randomly assigned to each of the experimental groups. A low-calorie water gel that contained the pesticides was administered via gavage to these rats three times per week for 90 days. The doses of the pesticides mixture used for exposure were 4, 10, 20, 40, 100, 200, and 400 µg/kg of body weight. The exposure range was set as follows: The lowest dose was the lowest level allowing the detection of pesticides in hair after a 90-day exposure, based on preliminary experiments not detailed here. Testing lower levels would not have been relevant because some compounds would not be detected anymore (analytical limitation). In addition, for some other compounds, no differences were detected in the current experiment between the lowest level of exposure and the background exposure of the controls. The highest dose was set according to toxicity of compounds, which corresponded to 1/20 of the lowest LD50 (carbofuran). The animals were weighed before each administration in order to adapt the amount of pesticide-containing mixture to the animals’ weight.
(§2) The animals were shaved before the experiment began to ensure that the hair collected at the end of the study accurately reflected the 90-day period of exposure. White and black hairs were collected separately, placed in aluminum foil, and stored at −20 °C until analysis. Blood was collected in EDTA tube from the tail vein, 3 h after oral administration on Day 90. Each sampling (500–750 µL) was immediately centrifuged at 5000×g for 3 min at room temperature, and plasma was separated and stored at −80 °C before analysis. For urine collection, the rats were placed in individual metabolic cages (Type 304 stainless steel, Techniplast, Zwaag, Netherlands) immediately after gavage for 24 h (from Day 88 to Day 89). The urine was collected in refrigerated tubes over a 24-h period and was weighed before storage at −20 °C.
(§3) Depending on the compounds, only parent pesticides, only metabolites, or both parent and metabolites were analyzed in the biological matrices. The chemicals were analyzed as previously described (Chata et al. [2016]; Hardy et al. [2015]). Despite the different nature of the biological matrices analyzed (liquid vs. solid), method protocols were developed to ensure similarity so they could be reliably compared to the information obtained from each matrix, thereby ensuring that differences were not likely attributable to analytical bias. […] Because analytical background noise was absent from the chromatograms because tandem mass spectrometry was used, the approaches based on background noise for determining the limit of detection (LOD) were not applicable. The LOD was therefore determined as the lowest concentration that was detected in the samples analyzed during this study. Selectivity was ensured by analyte retention time and by the quantification transition to confirmation transition ratio that had to be lower than the 20% difference from the ratio obtained with standard compounds. The LOD ranged from 0.02 pg/mg for β-endosulfan to 2.7 pg/mg for dichlorodiphenyltrichloroethane (p,p′-DDT) in hair, from 0.2 pg/mL for trifluralin to 13.6 ng/mL for 2-isopropoxyphenol (2-IPP) in urine, and from 2.4 pg/mL for β-endosulfan to 679 pg/mL for p,p′-DDT in plasma. Because the analysis of parent pesticides and metabolites was conducted on the same hair sample, the addition of parent organophosphate isotope-labeled analog standards was not possible because their degradation into non-labeled dialkyl phosphate (DAP) during the analytical procedure would have hindered the analysis of DAP due to exposure. In hair, only organophosphate metabolites (not parents) were therefore quantified, and only qualitative results were obtained for parents.
(§4) The association between the level of exposure and the analyte concentration in the matrix (i.e., hair, urine, and plasma) was assessed by the Pearson product-moment correlation coefficient (R Pearson). […]

Series [2] can be described thus: Concentration of pesticides and metabolites in plasma of rats after 90-day gavage exposure to a pesticide mixture. The following applies: for Slope (linear fit), concentration in plasma versus level of exposure: exposure expressed as mg/kg per day, concentration as ng/mL, detected values only; for Concentration range in plasma (detection): ND = not detected, whatever the level of exposure. The procedure: as §1, §2, §3, §4

Series [3] can be described thus: Concentration of pesticides and metabolites in hair of rats after 90-day gavage exposure to a pesticide mixture. To be noted: for Slope (linear fit), concentration in hair versus level of exposure: exposure expressed as mg/kg per day, concentration as pg/mg, detected values only. As to the method:
as §1, §2, §3, §4

The nature of series [4]: Influence of hair pigmentation: concentration in white hair versus pigmented hair. To be noted: slope close to 1 = poor influence of pigmentation. As to the method: as §2
The influence of hair pigmentation on pesticide incorporation was assessed by comparing the concentration detected in white hair versus pigmented hair which were collected and analyzed separately from each animal. […] For the majority of the chemicals tested during the current study, pigmentation seemed to have a very limited effect on the concentration in hair, and only few compounds seemed to be pigmentation sensitive.

Consider `CC(C)Oc1ccccc1O` [2-IPP, 2-isopropoxyphenol], for which, in series [1], the “Slope (linear fit), concentration in urine versus level of exposure” value (“Slope … in urine versus level of exposure” below) is on record as 1.0 E + 06. Moreover, the “Slope (linear fit), concentration in plasma versus level of exposure” value (“Slope … in plasma versus level of exposure” below) in series [2] is on record as 10.4. In addition, the “Slope (linear fit), concentration in hair versus level of exposure” value (“Slope … in hair versus level of exposure” for short) in series [3] amounted to 26.3. Besides, the “Slope, concentration in white hair versus pigmented hair” value in series [4] is listed as 0.692.
For `O=C(O)c1cccc(Oc2ccccc2)c1` [3-PBA, 3-phenoxybenzoic acid] the same measures were 1.5 E + 05, 422, 7.08 and 1.070.
In the same order, the values of `CC1(C)Cc2cccc(O)c2O1` [Carbofuran phenol] are 1.0 E + 06, 1.73, 35.10 and 1.109.
For `CC1(C)C(C=C(Cl)Cl)C1C(=O)O` (stereo not shown) [Cl2CA, 3-(2,2-dichlorovinyl)-2,2-dimethylcyclopropane-1-carboxylic acid] the same measures were 1.0 E + 06, 139, 49.20 and 0.498.
With `CC1(C)C(C=C(Cl)C(F)(F)F)C1C(=O)O` (stereo not shown) [ClCF3CA, 3-(2-chloro-3,3,3-trifluoro-1-propenyl)-2,2-dimethylcyclopropane carboxylic acid], in series [1], the “Slope … in urine versus level of exposure” value stood at 1.6 E + 05. For the same compound, in series [2], the “Slope … in plasma versus level of exposure” value was found to be 9.79. Besides, the “Slope … in hair versus level of exposure” value in series [3] worked out at 5.22. For the same compound, the “Slope, concentration in white hair versus pigmented hair” value in series [4] was found to be 0.220.
With `CC1(C)C(C=C(Cl)Cl)C1C(=O)OC(C#N)c1cccc(Oc2ccccc2)c1` (stereo not shown) [Cypermethrin], in series [2], the “Exposure level from which detected in plasma” value (“Exposure level … in plasma” below) was 10 µg/kg and the “Slope … in plasma versus level of exposure” value is given as 10.1. The “Exposure level from which detected in hair” value (shortened to “Exposure level … in hair”) in series [3] is on record as 200 µg/kg. Moreover, the “Slope, concentration in white hair versus pigmented hair” value in series [4] was 0.495.
Turning to `CCOP(O)(=S)OCC` [DETP, diethylthiophosphate], the “Slope … in urine versus level of exposure” value in series [1] is 9.9 E + 05. Besides, the “Slope … in plasma versus level of exposure” value in series [2] is 3.26. Besides, the “Slope … in hair versus level of exposure” value in series [3] was 10.47. In addition, in series [4], the “Slope, concentration in white hair versus pigmented hair” value is reported as 0.608.
`CCOP(=S)(OCC)Oc1cc(C)nc(C(C)C)n1` [Diazinon]: in series [2], the “Concentration range in plasma (detection)” value was “not detected”.
Turning to `ClC1=C(Cl)[C@]2(Cl)[C@@H]3[C@@H]4C[C@@H]([C@H]5O[C@@H]45)[C@@H]3[C@@]1(Cl)C2(Cl)Cl` [Dieldrin], the “Slope … in urine versus level of exposure” value in series [1] is 2 069. Further, in series [2], the “Slope … in plasma versus level of exposure” value is on record as 305. Moreover, the “Slope … in hair versus level of exposure” value in series [3] is reported as 427.8. For the same compound, the “Slope, concentration in white hair versus pigmented hair” value in series [4] stood at 1.000.
As to `O=C(Nc1ccc(F)cc1F)c1cccnc1Oc1cccc(C(F)(F)F)c1` [Diflufenican], in series [1], the “Exposure level from which detected in urine” value was 20 µg/kg and the “Slope … in urine versus level of exposure” value is on record as 99. For the same compound, the “Slope … in plasma versus level of exposure” value in series [2] turned out to be 15.2. Moreover, the “Slope … in hair versus level of exposure” value in series [3] worked out at 35.94. For the same compound, the “Slope, concentration in white hair versus pigmented hair” value in series [4] came out at 0.937.
`N#Cc1nn(-c2c(Cl)cc(C(F)(F)F)cc2Cl)c(N)c1S(=O)(=O)C(F)(F)F` [Fipronil sulfone]: the “Slope … in urine versus level of exposure” value in series [1] is on record as 10 650. Further, the “Slope … in plasma versus level of exposure” value in series [2] is reported as 976. Also, the “Slope … in hair versus level of exposure” value in series [3] is 772. The “Slope, concentration in white hair versus pigmented hair” value in series [4] is given as 1.114.
Consider `N#Cc1nn(-c2c(Cl)cc(C(F)(F)F)cc2Cl)c(N)c1[S+]([O-])C(F)(F)F` (stereo not shown) [Fipronil], for which, in series [1], the “Exposure level from which detected in urine” value came to 10 µg/kg and the “Slope … in urine versus level of exposure” value is listed as 2 016. Further, the “Slope … in hair versus level of exposure” value in series [3] came out at 31.5. Moreover, the “Slope, concentration in white hair versus pigmented hair” value in series [4] was 1.017.
On to `CC(C)Oc1cc(-n2nc(C(C)(C)C)oc2=O)c(Cl)cc1Cl` [Oxadiazon], for which the “Concentration range in urine (detection)” value in series [1] is listed as “not detected”. In addition, in series [2], the “Slope … in plasma versus level of exposure” value was found to be 38.5. For the same compound, the “Slope … in hair versus level of exposure” value in series [3] is recorded as 11.45. For the same compound, in series [4], the “Slope, concentration in white hair versus pigmented hair” value is 0.860.
Turning to `Oc1c(Cl)c(Cl)c(Cl)c(Cl)c1Cl` [Pentachlorophenol], the “Slope … in urine versus level of exposure” value in series [1] was 82 841. The “Slope … in plasma versus level of exposure” value in series [2] came out at 2039. Moreover, the “Slope … in hair versus level of exposure” value in series [3] was found to be 169.0. The “Slope, concentration in white hair versus pigmented hair” value in series [4] is on record as 0.705.
With `CC1(C)C(C=C(Cl)Cl)C1C(=O)OCc1cccc(Oc2ccccc2)c1` (stereo not shown) [Permethrin], in series [2], the “Exposure level … in plasma” value is 100 µg/kg and the “Slope … in plasma versus level of exposure” value turned out to be 1.04.
Regarding `CCCC1COC(Cn2cncn2)(c2ccc(Cl)cc2Cl)O1` (stereo not shown) [Propiconazole], the “Concentration range in urine (detection)” value in series [1] is recorded as “not detected”. The “Concentration range in plasma (detection)” value in series [2] is listed as “not detected”. Also, the “Slope … in hair versus level of exposure” value in series [3] stood at 6.47. Besides, the “Slope, concentration in white hair versus pigmented hair” value in series [4] was 0.825.
With `Oc1nc(Cl)c(Cl)cc1Cl` [TCPy, 3,5,6-trichloro-2-pyridinol], the “Slope … in urine versus level of exposure” value in series [1] is 2.5 E + 06. Further, the “Slope … in plasma versus level of exposure” value in series [2] came out at 109. For the same compound, the “Slope … in hair versus level of exposure” value in series [3] is recorded as 85.6. Further, the “Slope, concentration in white hair versus pigmented hair” value in series [4] turned out to be 0.435.
For the compound `CCCN(CCC)c1c([N+](=O)[O-])cc(C(F)(F)F)cc1[N+](=O)[O-]` [Trifluralin], the “Slope … in urine versus level of exposure” value in series [1] is reported as 4. Further, the “Slope … in plasma versus level of exposure” value in series [2] came out at 1.57. Besides, the “Slope … in hair versus level of exposure” value in series [3] was 1.107; in series [3] (listed as trifluralin), 1.11. Besides, in series [4], the “Slope, concentration in white hair versus pigmented hair” value is 0.688.
On to `Clc1ccc(C(c2ccc(Cl)cc2)C(Cl)Cl)cc1` [p,p′-DDD, p,p′-dichlorodiphenyldichloroethane], for which the “Concentration range in urine (detection)” value in series [1] is reported as “not detected”. Also, in series [2], the “Exposure level … in plasma” value stood at 40 µg/kg and the “Slope … in plasma versus level of exposure” value turned out to be 13.1. Also, in series [3], the “Exposure level … in hair” value came to 40 µg/kg per day and the “Slope … in hair versus level of exposure” value stood at 24.0. For the same compound, the “Slope, concentration in white hair versus pigmented hair” value in series [4] worked out at 0.673.
As to `CC1(C)C(/C=C(\Cl)C(F)(F)F)C1C(=O)OC(C#N)c1cccc(Oc2ccccc2)c1` (stereo not shown) [λ-Cyhalothrin], in series [2] (at equal level of exposure), the “Concentration in plasma relative to cypermethrin” value was “approximately 10 times” and the “Concentration in plasma relative to permethrin” value is reported as “approximately 100 times”. In series [2], the “Exposure level … in plasma” value worked out at 4 µg/kg and the “Slope … in plasma versus level of exposure” value is on record as 116. In series [3], the “Exposure level … in hair” value was determined as 20 µg/kg and the “Slope … in hair versus level of exposure” value was 5.050. Also, in series [4], the “Slope, concentration in white hair versus pigmented hair” value stood at 1.079.
